The text below walks through data of publication PMC4358968, “Lipid-Free Antigen B Subunits from Echinococcus granulosus: Oligomerization, Ligand Binding, and Membrane Interaction Properties” (PLoS Neglected Tropical Diseases, 2015).

Experiment [1] deals with T1, EgAgB8/3 (antigen B subunit 3).
T1 construct: gene EgAgB3; recombinant lipid-free (RP-HPLC delipidated) EgAgB8/3 mature subunit, GST fusion cleaved with thrombin; GenBank AAK64236
The experiment is described as follows: fluorimetric titration of 12-AS (direct probe binding, TBS). Also on record: species or system Echinococcus granulosus.

The target of experiment [2] is T2, EgAgB8/2 (antigen B subunit 2) (Echinococcus granulosus, UniProt Q27275).
T2 construct: gene AgB2; recombinant lipid-free (RP-HPLC delipidated) EgAgB8/2 mature subunit, GST fusion cleaved with thrombin; GenBank AAC47169
The experiment is described as follows: fluorimetric titration of 12-AS (direct probe binding, […]°C, TBS).

The target of experiment [3] is recombinant EgAgB8/2 subunit of Echinococcus granulosus antigen B (Echinococcus granulosus). The experiment is described as follows: SEC; 100 uL of lipid-free EgAgB8/2 (324 uM) or EgAgB8/3 (320 uM) loaded separately on Superdex 200 HR 10/30 in PBS, 0.5 mL/min; apparent molecular weight against BSA, carbonic anhydrase and cytochrome c. Background: SEC sorts molecules by how far they enter the pores of the column.

The target in experiment [4] is recombinant EgAgB8/3 subunit of Echinococcus granulosus antigen B (Echinococcus granulosus). The description is as above.

Consider `CCCCCCC(CCCCCCCCCCC(=O)O)OC(=O)c1c2ccccc2cc2ccccc12` (stereo not shown) [12-AS, 12-(9-anthroyloxy) stearic acid], for which the Kd (commonly a measure of binding affinity in units of concentration) in experiment [1] was determined as 340 ± 20 nM; in experiment [2] it was 160 ± 90 nM.

Turning to “recombinant EgAgB8/2 subunit of Echinococcus granulosus antigen B (natural protein)”, in experiment [3], the stoichiometry N (commonly a count of units in the complex or per binding partner) is 7 to 8 subunits.

Take “recombinant EgAgB8/3 subunit of Echinococcus granulosus antigen B (natural protein)”: the stoichiometry N in experiment [4] fell in the range of 4 to 5 subunits.
